# US7396837B2, “Antitumoral analogs of lamellarins” (Pharma Mar, S.A.U., priority 2002, dated 2008)
# Where two headings read alike, the source gives them in different places.
# Legend:
# Format in all cases: cell-based
# SK-BR-3 = test: SRB colorimetric cell growth inhibition assay, SK-BR-3; conditions: Homo sapiens, SK-BR-3, SK-BR-3; for GI50: GI=growth inhibition, read-out: GI50 SK-BR-3; for CC50: read-out: LC50 SK-BR-3; for IC (TGI): read-out: TGI SK-BR-3
# Method in brief: (§1)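 Tested samples remained on human cancer cell cultures throughout the incubation; viable biomass was then stained with SRB and read colorimetrically.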
# K-562 = test: SRB colorimetric cell growth inhibition assay, K-562; conditions: Homo sapiens, K562, K-562; for GI50: GI=growth inhibition, read-out: GI50 K-562; for CC50: read-out: LC50 K-562; for IC (TGI): read-out: TGI K-562
# Method in brief: as §1
# A-549 = test: SRB colorimetric cell growth inhibition assay, A-549; conditions: Homo sapiens, A549, A-549; for GI50: GI=growth inhibition, read-out: GI50 A-549; for CC50: read-out: LC50 A-549; for IC (TGI): read-out: TGI A-549
# Method in brief: as §1
# IGROV-ET = test: SRB colorimetric cell growth inhibition assay, IGROV-ET (ET-743 resistant); conditions: Homo sapiens, IGROV-ET; for GI50: GI=growth inhibition, read-out: GI50 IGROV-ET; for CC50: read-out: LC50 IGROV-ET; for IC (TGI): read-out: TGI IGROV-ET
# Method in brief: as §1
# LNCaP = test: SRB colorimetric cell growth inhibition assay, LNCaP; conditions: Homo sapiens, LNCaP, LN-caP; for GI50: GI=growth inhibition, read-out: GI50 LN-caP; for CC50: read-out: LC50 LN-caP; for IC (TGI): read-out: TGI LN-caP
# Method in brief: as §1
# IGROV = test: SRB colorimetric cell growth inhibition assay, IGROV; conditions: Homo sapiens, IGROV; for GI50: GI=growth inhibition, read-out: GI50 IGROV; for CC50: read-out: LC50 IGROV; for IC (TGI): read-out: TGI IGROV
# Method in brief: as §1
# HT-29 = test: SRB colorimetric cell growth inhibition assay, HT-29; conditions: Homo sapiens, HT-29, HT-29; for GI50: GI=growth inhibition, read-out: GI50 HT-29; for CC50: read-out: LC50 HT-29; for IC (TGI): read-out: TGI HT-29
# Method in brief: as §1
# DU-145 = test: SRB colorimetric cell growth inhibition assay, DU-145; conditions: Homo sapiens, DU-145, DU-145; for GI50: GI=growth inhibition, read-out: GI50 DU-145; for CC50: read-out: LC50 DU-145; for IC (TGI): read-out: TGI DU-145
# Method in brief: as §1
# HeLa-APL = test: SRB colorimetric cell growth inhibition assay, HeLa-APL (aplidine resistant); conditions: Homo sapiens, HELA-APL; for GI50: GI=growth inhibition, read-out: GI50 HELA-APL; for CC50: read-out: LC50 HELA-APL; for IC (TGI): read-out: TGI HELA-APL
# Method in brief: as §1
# SK-MEL-28 = test: SRB colorimetric cell growth inhibition assay, SK-MEL-28; conditions: Homo sapiens, SK-MEL-28, MEL-28; for GI50: GI=growth inhibition, read-out: GI50 MEL-28; for CC50: read-out: LC50 MEL-28; for IC (TGI): read-out: TGI MEL-28
# Method in brief: as §1
# LoVo = test: SRB colorimetric cell growth inhibition assay, LoVo; conditions: Homo sapiens, LoVo; for GI50: GI=growth inhibition, read-out: GI50 LOVO; for CC50: read-out: LC50 LOVO; for IC (TGI): read-out: TGI LOVO
# Method in brief: as §1
# PANC-1 = test: SRB colorimetric cell growth inhibition assay, PANC-1; conditions: Homo sapiens, PANC-1, PANC-1; for GI50: GI=growth inhibition, read-out: GI50 PANC-1; for CC50: read-out: LC50 PANC-1; for IC (TGI): read-out: TGI PANC-1
# Method in brief: as §1
# LoVo-Dox = test: SRB colorimetric cell growth inhibition assay, LoVo-Dox (MDR); conditions: Homo sapiens, LOVO-DOX; for GI50: GI=growth inhibition, read-out: GI50 LOVO-DOX; for CC50: read-out: LC50 LOVO-DOX; for IC (TGI): read-out: TGI LOVO-DOX
# Method in brief: as §1
# HeLa = test: SRB colorimetric cell growth inhibition assay, HeLa; conditions: Homo sapiens, HeLa; for GI50: GI=growth inhibition, read-out: GI50 HELA; for CC50: read-out: LC50 HELA; for IC (TGI): read-out: TGI HELA
# Method in brief: as §1
# [1] = LC=cell killing (cytotoxic effect)
# [2] = TGI=total growth inhibition (cytostatic effect)
# [3] = cell killing (cytotoxic effect)
# [4] = total growth inhibition (cytostatic effect)
compound,measurement,setting,value
COc1cc2c(cc1OC)-c1c(-c3ccc(OC(=O)CCCC[C@@H]4SC[C@@H]5NC(=O)N[C@@H]54)c(OC)c3)c3c4cc(OC)c(OC(=O)CCCC[C@@H]5SC[C@@H]6NC(=O)N[C@@H]65)cc4oc(=O)c3n1CC2 [Compound 47],GI50,SK-BR-3,2.29 µM
same,CC50,SK-BR-3; [1],10.3 µM
same,IC (TGI),SK-BR-3; [2],6.01 µM
same,GI50,K-562,0.564 µM
same,CC50,K-562; [1],10.3 µM
same,IC (TGI),K-562; [2],3.74 µM
same,GI50,A-549,3.26 µM
same,CC50,A-549; [1],10.3 µM
same,IC (TGI),A-549; [2],10.3 µM
same,GI50,IGROV-ET,2.07 µM
same,CC50,IGROV-ET; [1],10.3 µM
same,IC (TGI),IGROV-ET; [2],10.3 µM
same,GI50,LNCaP,0.0884 µM
same,CC50,LNCaP; [1],5.87 µM
same,IC (TGI),LNCaP; [2],1.59 µM
same,GI50,IGROV,0.764 µM
same,CC50,IGROV; [1],10.3 µM
same,IC (TGI),IGROV; [2],10.3 µM
same,GI50,HT-29,1.25 µM
same,CC50,HT-29; [1],10.3 µM
same,IC (TGI),HT-29; [2],10.3 µM
same,GI50,DU-145,1.08 µM
same,CC50,DU-145; [1],10.3 µM
same,IC (TGI),DU-145; [2],4.61 µM
same,GI50,HeLa-APL,5.75 µM
same,CC50,HeLa-APL; [1],10.3 µM
same,IC (TGI),HeLa-APL; [2],10.3 µM
same,GI50,SK-MEL-28,2.07 µM
same,CC50,SK-MEL-28; [1],10.3 µM
same,IC (TGI),SK-MEL-28; [2],10.3 µM
same,GI50,LoVo,3.97 µM
same,CC50,LoVo; [1],10.3 µM
same,IC (TGI),LoVo; [2],10.3 µM
same,GI50,PANC-1,3.86 µM
same,CC50,PANC-1; [1],10.3 µM
same,IC (TGI),PANC-1; [2],10.3 µM
same,GI50,LoVo-Dox,8.09 µM
same,CC50,LoVo-Dox; [1],10.3 µM
same,IC (TGI),LoVo-Dox; [2],10.3 µM
same,GI50,HeLa,0.537 µM
same,CC50,HeLa; [1],10.3 µM
same,IC (TGI),HeLa; [2],4.79 µM
COc1cc2ccn3c(c(-c4ccc(OC(=O)[C@@H](NC(=O)OC(C)(C)C)C(C)C)c(OC)c4)c4c5cc(OC)c(OC(=O)[C@@H](NC(=O)OC(C)(C)C)C(C)C)cc5oc(=O)c43)c2cc1OC [Compound 15],GI50,SK-BR-3,0.0561 µM
same,CC50,SK-BR-3; [3],5.84 µM
same,IC (TGI),SK-BR-3; [4],0.635 µM
same,GI50,K-562,1.6 µM
same,CC50,K-562; [3],9.57 µM
same,IC (TGI),K-562; [4],3.91 µM
same,GI50,A-549,0.0541 µM
same,CC50,A-549; [3],11 µM
same,IC (TGI),A-549; [4],1.46 µM
same,GI50,IGROV-ET,6.87 µM
same,CC50,IGROV-ET; [3],11 µM
same,IC (TGI),IGROV-ET; [4],11 µM
same,GI50,LNCaP,0.056 µM
same,CC50,LNCaP; [3],3.93 µM
same,IC (TGI),LNCaP; [4],0.609 µM
same,GI50,IGROV,0.0862 µM
same,CC50,IGROV; [3],9.76 µM
same,IC (TGI),IGROV; [4],2.03 µM
same,GI50,HT-29,0.0473 µM
same,CC50,HT-29; [3],9.17 µM
same,IC (TGI),HT-29; [4],0.111 µM
same,GI50,DU-145,0.0685 µM
same,CC50,DU-145; [3],11 µM
same,IC (TGI),DU-145; [4],3.08 µM
same,GI50,HeLa-APL,2.43 µM
same,CC50,HeLa-APL; [3],11 µM
same,IC (TGI),HeLa-APL; [4],5.53 µM
same,GI50,SK-MEL-28,0.0482 µM
same,CC50,SK-MEL-28; [3],7.24 µM
same,IC (TGI),SK-MEL-28; [4],1.64 µM
same,GI50,LoVo,1.68 µM
same,CC50,LoVo; [3],11 µM
same,IC (TGI),LoVo; [4],4.96 µM
same,GI50,PANC-1,1.54 µM
same,CC50,PANC-1; [3],11 µM
same,IC (TGI),PANC-1; [4],5.26 µM
same,GI50,LoVo-Dox,11 µM
same,CC50,LoVo-Dox; [3],11 µM
same,IC (TGI),LoVo-Dox; [4],11 µM
same,GI50,HeLa,0.0579 µM
same,CC50,HeLa; [3],7.81 µM
same,IC (TGI),HeLa; [4],1.41 µM
COc1cc(-c2c3c4cc(OC)c(OC(=O)CCc5ccccc5)cc4oc(=O)c3n3ccc4cc(OC(=O)CCc5ccccc5)c(OC)cc4c23)ccc1OC(=O)CCc1ccccc1 [Compound 8],GI50,SK-BR-3,0.915 µM
same,CC50,SK-BR-3; [3],9.19 µM
same,IC (TGI),SK-BR-3; [4],3.04 µM
same,GI50,K-562,0.225 µM
same,CC50,K-562; [3],7.49 µM
same,IC (TGI),K-562; [4],1.57 µM
same,GI50,A-549,0.744 µM
same,CC50,A-549; [3],11.2 µM
same,IC (TGI),A-549; [4],6.34 µM
same,GI50,IGROV-ET,3.35 µM
same,CC50,IGROV-ET; [3],11.2 µM
same,IC (TGI),IGROV-ET; [4],11.2 µM
same,GI50,LNCaP,0.654 µM
same,CC50,LNCaP; [3],7.21 µM
same,IC (TGI),LNCaP; [4],2.47 µM
same,GI50,IGROV,0.445 µM
same,CC50,IGROV; [3],11.2 µM
same,IC (TGI),IGROV; [4],2.17 µM
same,GI50,HT-29,0.377 µM
same,CC50,HT-29; [3],11.2 µM
same,IC (TGI),HT-29; [4],11.2 µM
same,GI50,DU-145,0.703 µM
same,CC50,DU-145; [3],9.43 µM
same,IC (TGI),DU-145; [4],2.6 µM
same,GI50,HeLa-APL,7.3 µM
same,CC50,HeLa-APL; [3],11.2 µM
same,IC (TGI),HeLa-APL; [4],11.2 µM
same,GI50,SK-MEL-28,0.407 µM
same,CC50,SK-MEL-28; [3],11.2 µM
same,IC (TGI),SK-MEL-28; [4],2.2 µM
same,GI50,LoVo,1.48 µM
same,CC50,LoVo; [3],11.2 µM
same,IC (TGI),LoVo; [4],4.68 µM
same,GI50,PANC-1,0.231 µM
same,CC50,PANC-1; [3],11.2 µM
same,IC (TGI),PANC-1; [4],0.865 µM
same,GI50,LoVo-Dox,8.34 µM
same,CC50,LoVo-Dox; [3],11.2 µM
same,IC (TGI),LoVo-Dox; [4],11.2 µM
same,GI50,HeLa,0.276 µM
same,CC50,HeLa; [3],7.92 µM
same,IC (TGI),HeLa; [4],1.41 µM
